Assay [1] relates to HT-29 colon adenocarcinoma cells. Description: Apoptosis by DNA fragmentation assay in HT-29. Further: key: −: Not active; +: Slightly active; ++: Moderately active; +++: Strongly active; ++++: Highly active. The class given is cell-based, human. Particulars: qualitative activity profile.
Assay [2] deals with T1, PDE peak A (PDE5) from SW480 cells (Homo sapiens, UniProt O76074).
T1 construct: endogenous in cells; host or cells: SW480 colon cancer cells, DEAE-Trisacryl M fraction
Description: cGMP hydrolysis inhibition, PDE peak A from SW480. Particulars: cGMP hydrolysis, 0.25 μM 3H-cGMP. The class given is biochemical.

For a further assay, the system named is UACC375, Melanoma. The assay is described as follows: Growth inhibition, SRB assay, UACC375. The class given is cell-based. The text has this: (§1) A compound's ability to inhibit tumor cell growth can be measured using the HT-29 human colon carcinoma cell line obtained from ATCC. HT-29 cells have previously been characterized as a relevant colon tumor cell culture model (Fogh, J., and Trempe, G. In: Human Tumor Cells in Vitro, J. Fogh (eds.), Plenum Press, New York, pp. 115-159, 1975). HT-29 cells are maintained in RPMI media supplemented with 5% fetal bovine calf serum (Gemini Bioproducts, Inc., Carlsbad, Calif.) and 2 mm glutamine, and 1% antibiotic-antimycotic in a humidified atmosphere of 95% air and 5% CO2 at 37° C. Briefly, HT-29 cells are plated at a density of 500 cells/well in 96 well microtiter plates and incubated for 24 hours at 37° C. prior to the addition of compound. […] After six days in culture, the cells are fixed by the addition of cold trichloroacetic acid to a final concentration of 10% and protein levels are measured using the sulforhodamine B (SRB) colorimetric protein stain assay as previously described by Skehan, P., Storeng, R., Scudiero, D., Monks, A., McMahon, J., Vistica, D., Warren, J. T., Bokesch, H., Kenney, S., and Boyd, M. R., “New Colorimetric Assay For Anticancer-Drug Screening,” J. Natl. Cancer Inst. […]
(§2) To show the effectiveness of this screening method on various forms of neoplasia, compounds were tested on numerous cell lines. […] The IC50 values were determined by the SRB assay. […]
On the technique in general: The SRB assay estimates cell density from bound dye.

For assay [3], the system named is cGMP and cAMP levels in HT-29 cells. The assay is described as follows: Cyclic nucleotide levels in cultured cells by radioimmunoassay. Type of assay: cell-based, human. Particulars: HT-29 cells treated 30 minutes.
In a further assay the test system is A-427, Lung. The assay is described as follows: Growth inhibition, SRB assay, A-427. The class given is cell-based.
Source text: as §1, §2

In assay [4] the test system is cGMP PDE purified from human colon HT-29 cultured tumor cells. The assay is described as follows: cGMP PDE inhibition assay. Type of assay: biochemical.
Assay [5] deals with premalignant lesions in mouse mammary gland organ culture. Description: Mammary gland organ culture model. On mammary gland organ culture: key: −: Not active; +: Slightly active; ++: Moderately active; +++: Strongly active; ++++: Highly active. Type of assay: cell-based. An excerpt:
Test compounds identified by the above methods can be tested for antineoplastic activity by their ability to inhibit the incidence of pre-neoplastic lesions in a mammary gland organ culture system. This mouse mammary gland organ culture technique has been successfully used by other investigators to study the effects of known antineoplastic agents such as certain NSAIDs, retinoids, tamoxifen, selenium, and certain natural products, and is useful for validation of the screening method of the present invention.
For example, female BALB/c mice can be treated with a combination of estradiol and progesterone daily, in order to prime the glands to be responsive to hormones in vitro. The animals are sacrificed, and thoracic mammary glands are excised aseptically and incubated for ten days in growth media supplemented with insulin, prolactin, hydrocortisone, and aldosterone. DMBA (7,12-dimethylbenz(a)anthracene) is added to medium to induce the formation of premalignant lesions. Fully developed glands are then deprived of prolactin, hydrocortisone, and aldosterone, resulting in the regression of the glands but not the pre-malignant lesions.
The test compound is dissolved in DMSO and added to the culture media for the duration of the culture period. At the end of the culture period, the glands are fixed in 10% formalin, stained with alum carmine, and mounted on glass slides. The incidence of forming mammary lesions is the ratio of the glands with mammary lesions to […]. The incidence of mammary lesions in test compound treated glands is compared with that of the untreated glands.
The extent of the area occupied by the mammary lesions can be quantitated by projecting an image of the gland onto a digitation pad. The area covered by the gland is traced on the pad and considered as 100% of the area. The space covered by each of the non-regressed structures is also outlined on the digitization pad and quantitated by the computer.
Mammary gland organ culture experiment were performed as previously described (Mehta and Moon, Cancer Research, 46: 5832-5835, 1986). […] The data support the hypothesis that cyclooxygenase inhibition is not necessary for the anti-neoplastic properties of desired compounds.

For assay [6], the system named is PDE4 purified from human colon HT-29 cultured tumor cells. The assay is described as follows: PDE4 inhibition assay. The class given is biochemical. Particulars: HT-29 cell enzyme.
In assay [7] the target is T2, purified cyclooxygenase (Type 1, COX-I) from ram seminal vesicles (Ovis aries, UniProt P05979).
T2 construct: using purified cyclooxygenase from ram seminal vesicles as described previously; tissue Cayman Chemical, Ann Arbor, Mich; (named in the general protocol only); host or cells: ram seminal vesicles
T2 sequence (P05979 25-600): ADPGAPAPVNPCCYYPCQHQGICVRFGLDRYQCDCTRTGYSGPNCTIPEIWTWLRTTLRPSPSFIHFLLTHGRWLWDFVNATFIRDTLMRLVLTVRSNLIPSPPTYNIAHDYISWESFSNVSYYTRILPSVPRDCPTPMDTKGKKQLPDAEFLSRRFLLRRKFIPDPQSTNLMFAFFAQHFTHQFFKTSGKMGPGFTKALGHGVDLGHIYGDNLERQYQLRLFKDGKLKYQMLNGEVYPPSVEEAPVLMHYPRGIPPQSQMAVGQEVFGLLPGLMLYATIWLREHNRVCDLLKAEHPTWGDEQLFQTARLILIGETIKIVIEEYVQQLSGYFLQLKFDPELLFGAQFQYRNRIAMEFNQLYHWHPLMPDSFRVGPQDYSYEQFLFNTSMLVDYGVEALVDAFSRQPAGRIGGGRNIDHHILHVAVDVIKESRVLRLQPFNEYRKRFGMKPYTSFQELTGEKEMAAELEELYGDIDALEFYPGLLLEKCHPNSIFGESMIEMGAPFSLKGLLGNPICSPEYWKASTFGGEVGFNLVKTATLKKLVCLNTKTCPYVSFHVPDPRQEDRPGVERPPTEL
Description: COX inhibition assay, purified cyclooxygenase. The class given is biochemical.

In assay [8] the test system is Bronchial Epithelial Cells. Description: Growth inhibition, SRB assay, bronchial epithelial cells. The class given is cell-based.
Source text: as §1, §2

The subject of the next assay is HCT116, Colon. The assay is described as follows: Growth inhibition, SRB assay, HCT116. Type of assay: cell-based.
Source text: as §1, §2

Assay [9] has as its target T3, cGMP binding sites of the GST-cGB-PDE5 protein (Homo sapiens, UniProt O76074).
T3 construct: made in house; host or cells: E. coli BL21 (DE3)
Description: cGMP binding assay with GST-cGB-PDE5 fusion protein. Particulars: 3H-cGMP 2 μM.

The text below walks through data of US20030109418A1, “Methods for identifying compounds for inhibition of neoplastic lesions, and pharmaceutical compositions containing such compounds” (priority 1999, published 2003).

Turning to “5-fluoro-2-methyl-1-(p-methylsulfinylbenzylidene)-3-indenylacetic acid [Sulindac sulfide]”, the Apoptosis entry in assay [1] is given as “+++”. For the same substance, the IC50 in [2] amounted to 50 µM; in the assay with UACC375, Melanoma, 50 µM; in the assay on A-427, Lung it was 90 µM; in assay [4] (read-out: IC50 for inhibition of cGMP PDE, HT-29 cell enzyme) it was 17 µM; in [6] it was 41 µM; in assay [8], 30 µM. Besides, in the assay with HCT116, Colon, the IC50 worked out at 45 µM. The “effect on cAMP levels” value in [3] is given as “unaffected”. Besides, the “increase of cGMP levels” value in assay [3] is on record as “greater than 50%”. The EC50 in assay [3] (read-out: EC50 for increase of cGMP) was 7.3 µM. Moreover, in assay [4] (10 μM), the “cGMP PDE inhibitory activity, % Inhibition at 10 μM” value was found to be 97%. Besides, the “PDE Inhibition” value in assay [4] (qualitative activity profile) is reported as “+++”. The “inhibition of the formation of premalignant lesions” value in [5] (mammary gland organ culture) was “inactive”. Besides, the “Mammary Gland Organ Culture” value in assay [5] (qualitative activity profile) is “−”. In addition, the “Cyclooxygenase inhibitory activity, % Inhibition at 100 μM” value in [7] (100 μM) is given as 97%. Further, the “COX Inhibition” value in assay [7] (qualitative activity profile) is recorded as “++++”. For the same substance, the “competition with cGMP in binding of GST-cGB-PDE5” value in [9] is “do not bind to the cGMP binding sites of PDE5”.

What is called IC50 is the concentration needed to halve the response being measured. Usually EC50 stands for the concentration at which the effect is half-maximal.
